Test systems include SK-MEL-2; TK-10; MDA-MB-435; HCC 2998; BT-549; UACC-62; HCT-15; A498; MDA-MB-231; OVCAR-4; UACC-257; COLO 205; OVCAR-8; CAKI-1; DU-145; SNB-75; Hs-578T; HOP-62; M14; Malme-3M.
Test in all cases: DTP human tumour cell line panel, 48 h

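A five-concentration, 48-hour dose response in 96-well plates underlies each endpoint, interpolated linearly between surrounding concentrations. The concentration for 50% growth inhibition is given as GI50.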 The source made the active and inactive calls. No stated cut-off is given here; in the data, active = GI50 up to about 1.1 µM and inactive = higher.

What is called GI50 is the concentration that inhibits growth by half.

For the compound `Nc1nncc2[nH]cnc12`, the GI50 is > 100 µM (inactive) in the test with SK-MEL-2; > 50.1 µM (inactive) with TK-10; > 74.3 µM (inactive) in the test on MDA-MB-435; > 100 µM (inactive) in the test on HCC 2998; 26.9 µM (inactive) in the test on BT-549; 47.3 µM (inactive) in the test on UACC-62. Besides, the GI50 in the test on HCT-15 is 44.4 µM; in the test with A498 it was > 62.2 µM (inactive); with MDA-MB-231 it was 99.5 µM (inactive); in the test with OVCAR-4, > 100 µM (inactive); in the test on UACC-257 it was 63.5 µM (inactive); with COLO 205, 24.2 µM (inactive). Also, the GI50 with OVCAR-8 is 22.5 µM (inactive); in the test on CAKI-1 it was 66.2 µM (inactive); in the test on DU-145, > 62.5 µM (inactive); with SNB-75, > 56.9 µM (inactive); in the test with Hs-578T, > 78.7 µM (inactive); in the test on HOP-62 it was > 100 µM (inactive). The GI50 in the test with M14 is 35.2 µM (inactive).

Turning to `Nc1ncnc2c1ncn2[C@@H]1O[C@H](COC(c2ccccc2)(c2ccccc2)c2ccccc2)[C@@H](OC(=S)Oc2ccccc2)[C@@H]1F`, the GI50 is 5.47 µM (inactive) with SK-MEL-2; 17.6 µM (inactive) in the test on TK-10; 4.03 µM (inactive) in the test with MDA-MB-435; 14 µM (inactive) with HCC 2998; 4.95 µM (inactive) with BT-549; 13.7 µM (inactive) in the test with UACC-62. Further, the GI50 with HCT-15 was 3.37 µM; in the test with A498, 18.3 µM (inactive); with MDA-MB-231, 10.7 µM (inactive); with OVCAR-4, 9.08 µM (inactive); with UACC-257 it was 14.6 µM (inactive); in the test on COLO 205, 12.4 µM (inactive). Further, the GI50 with OVCAR-8 was 3.37 µM (inactive); in the test with CAKI-1, 9.73 µM (inactive); in the test with DU-145 it was 15.1 µM (inactive); with SNB-75 it was 14.8 µM (inactive); in the test with Hs-578T, 6.28 µM (inactive); in the test with HOP-62, 15.5 µM (inactive). Besides, the GI50 with M14 was 5.53 µM (inactive).

Consider `Clc1ccc(/N=C2\c3ccccc3CN2c2ccc(Cl)cc2)cc1`, for which the GI50 was 4.68 µM (inactive) in the test on SK-MEL-2; 87.5 µM (inactive) in the test on TK-10; > 100 µM (inactive) in the test on MDA-MB-435; 28.4 µM (inactive) with HCC 2998; > 100 µM (inactive) in the test with BT-549; > 100 µM (inactive) with UACC-62. Besides, the GI50 with HCT-15 is more than 100 µM; with A498 it was > 100 µM (inactive); in the test with MDA-MB-231, 53.3 µM (inactive); with OVCAR-4, 61.9 µM (inactive); in the test on UACC-257 it was > 100 µM (inactive); with COLO 205, 1.58 µM (inactive). Also, the GI50 with OVCAR-8 is > 100 µM (inactive); in the test on CAKI-1 it was > 100 µM (inactive); with DU-145, 11.6 µM (inactive); with SNB-75, 63.8 µM (inactive); with Hs-578T, > 100 µM (inactive); in the test with HOP-62, 63.1 µM (inactive). In the test on M14, the GI50 is 31.7 µM (inactive).

Regarding `CCCCC(=O)c1ccc2ccccc2c1O`, the GI50 with SK-MEL-2, in the test with TK-10, in the test with MDA-MB-435, in the test on HCC 2998, in the test with BT-549 and in the test with UACC-62 was > 100 µM (inactive) throughout. The GI50 in the test with HCT-15 was more than 100 µM; with A498, > 100 µM (inactive); with MDA-MB-231 it was 66.4 µM (inactive); in the test with OVCAR-4, > 100 µM (inactive); in the test with UACC-257, > 100 µM (inactive); in the test on COLO 205, 88.9 µM (inactive). For the same compound, the GI50 in the test on OVCAR-8, with CAKI-1, in the test on DU-145, with SNB-75, in the test with Hs-578T and with HOP-62 was > 100 µM (inactive) throughout. Further, in the test on M14, the GI50 was > 100 µM (inactive).

`Cn1nc(S(N)(=O)=O)s/c1=N/C(N)=S`: the GI50 in the test on SK-MEL-2, with TK-10, in the test with MDA-MB-435, with HCC 2998, in the test on BT-549 and with Malme-3M was > 100 µM (inactive) throughout. Also, the GI50 with UACC-62 was > 100 µM (inactive); in the test with HCT-15 it was more than 100 µM; in the test with A498, > 100 µM (inactive); in the test on MDA-MB-231 it was > 100 µM (inactive); in the test on OVCAR-4 it was > 100 µM (inactive); in the test with UACC-257 it was > 100 µM (inactive). Moreover, the GI50 with COLO 205, with OVCAR-8, in the test with CAKI-1, with DU-145, with Hs-578T and in the test on HOP-62 was > 100 µM (inactive) throughout. Further, the GI50 with M14 was > 100 µM (inactive).

Consider `O=C(N/N=C(COc1ccc(Cl)cc1)\N=C\c1ccncc1)c1ccncc1`, for which the GI50 in the test on SK-MEL-2, in the test with TK-10, in the test with MDA-MB-435, with HCC 2998, in the test with BT-549 and in the test on Malme-3M was > 100 µM (inactive) in each case. Further, the GI50 was > 100 µM (inactive) in the test with UACC-62; more than 100 µM with HCT-15; 45.9 µM (inactive) with A498; > 100 µM (inactive) in the test on MDA-MB-231; > 100 µM (inactive) with OVCAR-4; > 100 µM (inactive) with UACC-257. The GI50 in the test with COLO 205, in the test with OVCAR-8, with CAKI-1, with DU-145, in the test on Hs-578T and in the test on HOP-62 was > 100 µM (inactive) in each case. The GI50 in the test with M14 was > 100 µM (inactive).

On to `CC(C)(Cc1ccccc1)N1C(=O)N1C(C)(C)Cc1ccccc1`, for which the GI50 with SK-MEL-2 is 19.7 µM (inactive); in the test on TK-10, > 100 µM (inactive); in the test on MDA-MB-435, 39.1 µM (inactive); in the test on HCC 2998 it was > 100 µM (inactive); with BT-549 it was 29.4 µM (inactive); in the test on Malme-3M it was 23.4 µM (inactive). Further, the GI50 in the test on UACC-62 was 23.8 µM (inactive); in the test with HCT-15, 21.4 µM; with A498, > 100 µM (inactive); in the test with MDA-MB-231, 28.1 µM (inactive); in the test on OVCAR-4, 34.7 µM (inactive); in the test on UACC-257 it was 40.9 µM (inactive). Moreover, the GI50 with COLO 205 was 25.6 µM (inactive); with OVCAR-8, > 100 µM (inactive); in the test with CAKI-1, > 100 µM (inactive); in the test with DU-145, > 100 µM (inactive); with SNB-75, 32.5 µM (inactive); in the test with Hs-578T, > 100 µM (inactive). In the test with M14, the GI50 is 34.8 µM (inactive).

Regarding `CN(C)CCCNC(=O)N/N=C/c1ccc(O)cc1`, the GI50 in the test on SK-MEL-2, in the test with TK-10, with MDA-MB-435, in the test on HCC 2998, in the test with BT-549 and in the test on Malme-3M was > 100 µM (inactive) in each case. Moreover, the GI50 with UACC-62 is > 100 µM (inactive); with HCT-15, more than 100 µM; in the test with A498, > 100 µM (inactive); in the test with MDA-MB-231 it was > 100 µM (inactive); with UACC-257, > 100 µM (inactive); in the test with COLO 205, > 100 µM (inactive). The GI50 in the test with OVCAR-8 is > 100 µM (inactive); in the test with CAKI-1, > 100 µM (inactive); with DU-145 it was > 100 µM (inactive); in the test on SNB-75, 59.2 µM (inactive); in the test on Hs-578T, > 100 µM (inactive); in the test with HOP-62, > 100 µM (inactive). The GI50 in the test on M14 is > 100 µM (inactive).

`C=CCc1oc(C)nc1CCCC`: the GI50 with TK-10, in the test on MDA-MB-435, in the test on HCC 2998, with BT-549, in the test on Malme-3M and in the test on UACC-62 was > 100 µM (inactive) in each case. Further, the GI50 is more than 100 µM in the test with HCT-15; > 100 µM (inactive) with A498; > 100 µM (inactive) in the test on MDA-MB-231; > 100 µM (inactive) with OVCAR-4; > 100 µM (inactive) in the test with UACC-257; > 100 µM (inactive) in the test with COLO 205. The GI50 in the test with OVCAR-8, with CAKI-1, in the test on DU-145, in the test with SNB-75, with Hs-578T and in the test with HOP-62 was > 100 µM (inactive) throughout. Further, in the test on M14, the GI50 is > 100 µM (inactive).

For the compound `Cc1c[nH]c(C(=O)O)c1-c1ccc2c(-c3ccccc3)nc3ccccc3n12`, the GI50 with SK-MEL-2 is 20.7 µM (inactive); in the test on TK-10, 29.2 µM (inactive); in the test with MDA-MB-435, 23.2 µM (inactive); with HCC 2998 it was 13.7 µM (inactive); in the test on BT-549, 30.6 µM (inactive); in the test on UACC-62, 20.7 µM (inactive). Further, the GI50 is 30 µM with HCT-15; 13.9 µM (inactive) in the test with A498; 32.9 µM (inactive) with MDA-MB-231; 41 µM (inactive) in the test with OVCAR-4; 30.8 µM (inactive) in the test on UACC-257; 39.4 µM (inactive) in the test with COLO 205. Further, the GI50 in the test on OVCAR-8 is 22.6 µM (inactive); in the test with CAKI-1 it was 34.7 µM (inactive); in the test on DU-145 it was 36.7 µM (inactive); in the test with SNB-75, 17.5 µM (inactive); in the test with Hs-578T, 18.6 µM (inactive); in the test with HOP-62, 15.7 µM (inactive). For the same compound, the GI50 with M14 was 31.7 µM (inactive).

Turning to `CCOC(=O)CCC(NC(=O)c1ccc(Nc2nc3ccccc3nc2C(=O)OCC)s1)C(=O)OCC` (centres undefined), the GI50 in the test with SK-MEL-2 is > 100 µM (inactive); in the test on TK-10 it was > 100 µM (inactive); in the test on MDA-MB-435 it was > 100 µM (inactive); in the test with HCC 2998, > 100 µM (inactive); with BT-549, 46 µM (inactive); in the test on Malme-3M, > 100 µM (inactive). For the same compound, the GI50 in the test on UACC-62 is 59.2 µM (inactive); in the test on HCT-15, more than 100 µM; in the test with A498, > 100 µM (inactive); in the test on MDA-MB-231, 67.1 µM (inactive); in the test with OVCAR-4, 37.2 µM (inactive); in the test on UACC-257, > 100 µM (inactive). Further, the GI50 with COLO 205 is > 100 µM (inactive); in the test on OVCAR-8 it was 19.5 µM (inactive); with CAKI-1, 81.3 µM (inactive); in the test on DU-145 it was > 100 µM (inactive); in the test on SNB-75, > 100 µM (inactive); with Hs-578T, 56.4 µM (inactive). The GI50 with M14 was > 100 µM (inactive).
